Here are results for 6 compounds from ChEMBL document CHEMBL1130984, “Substrate specificity of human prolyl-4-hydroxylase” (Bioorg Med Chem Lett, 1998).

Assay [1] deals with T1, Transmembrane prolyl 4-hydroxylase (Homo sapiens, UniProt Q9NXG6).
T1 sequence (Q9NXG6 whole entry): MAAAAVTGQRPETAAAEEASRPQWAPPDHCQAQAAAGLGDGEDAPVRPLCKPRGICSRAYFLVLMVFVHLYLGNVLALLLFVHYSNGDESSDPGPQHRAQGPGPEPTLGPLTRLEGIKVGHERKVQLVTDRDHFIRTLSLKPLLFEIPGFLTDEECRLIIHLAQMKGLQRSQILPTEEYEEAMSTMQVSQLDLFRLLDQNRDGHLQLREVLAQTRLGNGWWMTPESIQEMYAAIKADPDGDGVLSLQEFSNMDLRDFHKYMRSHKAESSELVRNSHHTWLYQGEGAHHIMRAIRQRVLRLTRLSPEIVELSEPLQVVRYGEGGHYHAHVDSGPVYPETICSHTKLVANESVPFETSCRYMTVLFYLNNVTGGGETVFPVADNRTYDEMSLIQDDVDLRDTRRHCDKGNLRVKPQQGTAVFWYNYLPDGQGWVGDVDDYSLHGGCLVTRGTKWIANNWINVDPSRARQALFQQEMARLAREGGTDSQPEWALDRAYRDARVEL
The assay can be described thus: Compound was tested for inhibition of the enzyme human proline-4-hydroxylase; No inhibition.

For assay [2], the target named is T2, Transmembrane prolyl 4-hydroxylase (Homo sapiens) (UniProt Q9NXG6).
T2 sequence (whole entry): T1 sequence (Q9NXG6 whole entry)
The assay can be described thus: Compound was tested for substrate specificity of human proline-4-hydroxylase; Not a substrate.

Assay [3] concerns the target T2, Transmembrane prolyl 4-hydroxylase (Homo sapiens). The assay can be described thus: Compound was tested for substrate specificity of human proline-4-hydroxylase; Substrate.

As for `CCOC(=O)CNC(=O)[C@@H]1C(Cl)CCN1C(=O)[C@H](Cc1ccccc1)NC(=O)CNC(=O)OCc1ccccc1` (stereo partly specified), in assay [1], the IC50 result is “Not Active”. In assay [2], the Activity entry is “Not a substrate”.

Regarding `CCOC(=O)CNC(=O)[C@@H]1CC(C)CN1C(=O)[C@H](Cc1ccccc1)NC(=O)CNC(=O)OCc1ccccc1` (stereo partly specified), in assay [1], the IC50 result is recorded as “Not Active”. In addition, the Activity entry in assay [2] is “Not a substrate”.

With `CCOC(=O)CNC(=O)[C@@H]1C(Br)CCN1C(=O)[C@H](Cc1ccccc1)NC(=O)CNC(=O)OCc1ccccc1` (stereo partly specified), in assay [1], the IC50 result is listed as “Not Active”. Moreover, in assay [2], the Activity entry is “Not a substrate”.

Regarding `CCOC(=O)CNC(=O)[C@H]1N(C(=O)[C@H](Cc2ccccc2)NC(=O)CNC(=O)OCc2ccccc2)CCC12CC2`, the IC50 result in assay [1] is “Not Active”. Besides, the Activity result in assay [2] is “Not a substrate”.

As for `CCOC(=O)CNC(=O)[C@@H]1C(F)CCN1C(=O)[C@H](Cc1ccccc1)NC(=O)CNC(=O)OCc1ccccc1` (stereo partly specified), in assay [3], the Activity result is “Substrate”.

Regarding `CCOC(=O)CNC(=O)[C@@H]1C(C)CCN1C(=O)[C@H](Cc1ccccc1)NC(=O)CNC(=O)OCc1ccccc1` (stereo partly specified), in assay [1], the IC50 entry is listed as “Not Active”. In addition, the Activity entry in assay [2] was “Not a substrate”.
